Measured values taken from BindingDB's records for doi:10.1016/j.bmc.2004.10.042 (Uppsala University, 2005).

The compounds below were run against T1, Dimer of Gag-Pol polyprotein [489-587] (Human immunodeficiency virus 1, UniProt P12497) (assay: Enzyme Inhibition Assay). Settings: pH 5; 30 °C.
T1 construct: 489-587
Method: The effects of the inhibitors on the activity of HIV-1 proteinase was determined by a fluorometric assay with an internally quenched fluorescent peptide substrate. Measurements were performed in 96-well plates with a Fluoroskan plate reader. Excitation and emission wavelengths were 355 and 500 nm, respectively.Data were analyzed by nonlinear regression by using SIMFIT, and an equation for tightly binding inhibitors.

Row | Structure (SMILES) | Ki
1 | CCS(=O)(=O)c1ccc(-c2ccccc2CN2C[C@H](O)[C@@H](O)CN(Cc3ccccc3-c3ccc(S(=O)(=O)CC)cc3)S2(=O)=O)cc1 [(4S,5S)-2,7-bis({2-[4-(ethanesulfonyl)phenyl]phenyl}methyl)-4,5-dihydroxy-1,2,7-thiadiazepane-1,1-dione] | 5.2 µM
2 | O=S1(=O)N(Cc2ccccc2-c2cc3ccccc3o2)C[C@H](O)[C@@H](O)CN1Cc1ccccc1-c1cc2ccccc2o1 [(4S,5S)-2,7-bis({[2-(1-benzofuran-2-yl)phenyl]methyl})-4,5-dihydroxy-1,2,7-thiadiazepane-1,1-dione] | 0.53 µM
3 | COc1ccc(-c2ccccc2CN2C[C@H](O)[C@@H](O)CN(Cc3ccccc3-c3ccc(OC)c(OC)c3)S2(=O)=O)cc1OC [(4S,5S)-2,7-bis({[2-(3,4-dimethoxyphenyl)phenyl]methyl})-4,5-dihydroxy-1,2,7-thiadiazepane-1,1-dione] | 9.4 µM
4 | CC(=O)c1ccc(-c2ccccc2CN2C[C@H](O)[C@@H](O)CN(Cc3ccccc3-c3ccc(C(C)=O)cc3)S2(=O)=O)cc1 [(4S,5S)-2,7-bis({[2-(4-acetylphenyl)phenyl]methyl})-4,5-dihydroxy-1,2,7-thiadiazepane-1,1-dione] | 5.3 µM
5 | CCCCc1ccc(-c2ccccc2CN2C[C@H](O)[C@@H](O)CN(Cc3ccccc3-c3ccc(CCCC)cc3)S2(=O)=O)cc1 [(4S,5S)-2,7-bis({[2-(4-butylphenyl)phenyl]methyl})-4,5-dihydroxy-1,2,7-thiadiazepane-1,1-dione] | 1.9 µM
6 | O=S1(=O)N(Cc2ccccc2-c2ccc(F)cc2)C[C@H](O)[C@@H](O)CN1Cc1ccccc1-c1ccc(F)cc1 [(4S,5S)-2,7-bis({[2-(4-fluorophenyl)phenyl]methyl})-4,5-dihydroxy-1,2,7-thiadiazepane-1,1-dione] | 5.3 µM
7 | O=S1(=O)N(Cc2ccccc2Cc2ccccc2)C[C@H](O)[C@@H](O)CN1Cc1ccccc1Cc1ccccc1 [(4S,5S)-2,7-bis[(2-benzylphenyl)methyl]-4,5-dihydroxy-1,2,7-thiadiazepane-1,1-dione] | 2.5 µM
8 | O=S1(=O)N(Cc2ccccc2)C[C@H](O)[C@@H](O)CN1Cc1ccccc1 [(4S,5S)-2,7-dibenzyl-4,5-dihydroxy-1,2,7-thiadiazepane-1,1-dione] | > 20 µM
9 | CSc1ccccc1-c1ccccc1CN1C[C@H](O)[C@@H](O)CN(Cc2ccccc2-c2ccccc2SC)S1(=O)=O [(4S,5S)-4,5-dihydroxy-2,7-bis({2-[2-(methylsulfanyl)phenyl]phenyl}methyl)-1,2,7-thiadiazepane-1,1-dione] | 1.1 µM
10 | CC(C)c1cccc(-c2ccccc2CN2C[C@H](O)[C@@H](O)CN(Cc3ccccc3-c3cccc(C(C)C)c3)S2(=O)=O)c1 [(4S,5S)-4,5-dihydroxy-2,7-bis({2-[3-(propan-2-yl)phenyl]phenyl}methyl)-1,2,7-thiadiazepane-1,1-dione] | 3.2 µM
11 | O=S1(=O)N(Cc2ccccc2-c2cccc(C(F)(F)F)c2)C[C@H](O)[C@@H](O)CN1Cc1ccccc1-c1cccc(C(F)(F)F)c1 [(4S,5S)-4,5-dihydroxy-2,7-bis({2-[3-(trifluoromethyl)phenyl]phenyl}methyl)-1,2,7-thiadiazepane-1,1-dione] | 2.4 µM
12 | O=S1(=O)N(Cc2ccccc2/C=C/c2ccccc2)C[C@H](O)[C@@H](O)CN1Cc1ccccc1/C=C/c1ccccc1 [(4S,5S)-4,5-dihydroxy-2,7-bis({2-[(E)-2-phenylethenyl]phenyl}methyl)-1,2,7-thiadiazepane-1,1-dione] | 2 µM
13 | COc1ccccc1-c1ccccc1CN1C[C@H](O)[C@@H](O)CN(Cc2ccccc2-c2ccccc2OC)S1(=O)=O [(4S,5S)-4,5-dihydroxy-2,7-bis({[2-(2-methoxyphenyl)phenyl]methyl})-1,2,7-thiadiazepane-1,1-dione] | 5.1 µM
14 | O=S1(=O)N(Cc2ccccc2CCc2ccccc2)C[C@H](O)[C@@H](O)CN1Cc1ccccc1CCc1ccccc1 [(4S,5S)-4,5-dihydroxy-2,7-bis({[2-(2-phenylethyl)phenyl]methyl})-1,2,7-thiadiazepane-1,1-dione] | 3 µM
15 | Cc1cccc(-c2ccccc2CN2C[C@H](O)[C@@H](O)CN(Cc3ccccc3-c3cccc(C)c3)S2(=O)=O)c1 [(4S,5S)-4,5-dihydroxy-2,7-bis({[2-(3-methylphenyl)phenyl]methyl})-1,2,7-thiadiazepane-1,1-dione] | 2.7 µM
16 | O=[N+]([O-])c1cccc(-c2ccccc2CN2C[C@H](O)[C@@H](O)CN(Cc3ccccc3-c3cccc([N+](=O)[O-])c3)S2(=O)=O)c1 [(4S,5S)-4,5-dihydroxy-2,7-bis({[2-(3-nitrophenyl)phenyl]methyl})-1,2,7-thiadiazepane-1,1-dione] | 7.4 µM
17 | COc1ccc(-c2ccccc2CN2C[C@H](O)[C@@H](O)CN(Cc3ccccc3-c3ccc(OC)cc3)S2(=O)=O)cc1 [(4S,5S)-4,5-dihydroxy-2,7-bis({[2-(4-methoxyphenyl)phenyl]methyl})-1,2,7-thiadiazepane-1,1-dione] | 9.7 µM
18 | Cc1ccc(-c2ccccc2CN2C[C@H](O)[C@@H](O)CN(Cc3ccccc3-c3ccc(C)cc3)S2(=O)=O)cc1 [(4S,5S)-4,5-dihydroxy-2,7-bis({[2-(4-methylphenyl)phenyl]methyl})-1,2,7-thiadiazepane-1,1-dione] | 1.5 µM
19 | O=S1(=O)N(Cc2ccccc2-c2ccsc2)C[C@H](O)[C@@H](O)CN1Cc1ccccc1-c1ccsc1 [(4S,5S)-4,5-dihydroxy-2,7-bis({[2-(thiophen-3-yl)phenyl]methyl})-1,2,7-thiadiazepane-1,1-dione] | 2.7 µM
20 | O=S1(=O)N(Cc2ccccc2-c2ccccc2)C[C@H](O)[C@@H](O)CN1Cc1ccccc1-c1ccccc1 [(4S,5S)-4,5-dihydroxy-2,7-bis[(2-phenylphenyl)methyl]-1,2,7-thiadiazepane-1,1-dione] | 2.5 µM
